pEC50: −log10 of the molar value.
The compounds below were run against Glycogen synthase kinase-3 beta (Homo sapiens, UniProt P49841) (assay: concentration-response blocking of human GSK3B – biochemical, luminescence, cell-free homogeneous, retest, dose response (AID 434954)).
Glycogen synthase kinase-3 beta, sequence (P49841 whole entry): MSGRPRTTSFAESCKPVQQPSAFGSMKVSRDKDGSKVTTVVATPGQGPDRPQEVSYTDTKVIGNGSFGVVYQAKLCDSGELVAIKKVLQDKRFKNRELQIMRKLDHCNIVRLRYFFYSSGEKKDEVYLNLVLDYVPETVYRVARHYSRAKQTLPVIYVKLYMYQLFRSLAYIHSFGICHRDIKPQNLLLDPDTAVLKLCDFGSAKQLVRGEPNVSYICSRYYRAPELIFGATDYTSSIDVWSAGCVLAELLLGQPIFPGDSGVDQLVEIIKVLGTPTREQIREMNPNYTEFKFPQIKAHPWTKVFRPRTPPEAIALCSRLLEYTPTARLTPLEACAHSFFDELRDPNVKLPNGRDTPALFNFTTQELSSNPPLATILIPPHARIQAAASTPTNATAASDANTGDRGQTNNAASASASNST

First: CCc1ccc(CN=Nc2ncnc3nc[nH]c23)cc1 [MLS000419199]
Second: Fc1ccc(CSc2nnc(-c3ccco3)o2)cc1
The pEC50 of the first is higher: 4.58 for the first, < 3.52 for the second.

First: O=c1cc(NCc2ccccc2)nc2n1CCCS2 [MLS000027636]
Second: Cc1nn(-c2ccccc2)cc1CN=O
The pEC50 of the first is lower: < 3.52 for the first, 4.15 for the second.

`O=C1Nc2cc(C(=O)NCC3CCCO3)ccc2S/C1=C/c1ccccc1F` (configuration not stated) and `O=C(NCC(c1ccco1)N1CCOCC1)c1cccc(Cl)c1` (configuration not stated) [SMR000808258] cannot be ordered by pEC50: < 3.52 for the first, < 3.52 for the second.

`COc1ccc(NC(=O)c2ccc(-c3ccc(OC)cc3)s2)cc1` [SMR000335035] and `Cc1ccc(Nc2nc(-c3ccncc3)nc3ccccc23)cc1` [MLS000769531] cannot be ordered by pEC50: < 3.52 for the first, < 3.52 for the second.

Going from `Cc1ccc(-c2nn(-c3ccccc3)cc2C=Nn2c(-c3cccs3)n[nH]c2=S)cc1` [4-({[3-(4-methylphenyl)-1-phenyl-1H-pyrazol-4-yl]methylene}amino)-5-(2-thienyl)-2,4-dihydro-3H-1,2,4-triazole-3-thione] to `Cc1ccc(-c2nn(-c3ccccc3)cc2CN=O)cc1` [N-[[3-(4-methylphenyl)-1-phenylpyrazol-4-yl]methylidene]hydroxylamine], the pEC50 rises from < 3.52 to 6.25. The second is the more potent here.

Going from `CCOC(=O)CC(=O)CSc1ccc2nnc(-c3ccc(C)cc3)n2n1` [3-keto-4-[[3-(p-tolyl)-[1,2,4]triazolo[4,3-b]pyridazin-6-yl]thio]butyric acid ethyl ester] to `Cc1ccc(-c2nn(-c3ccccc3)cc2CO)cc1`, the pEC50 falls from 4.84 to < 3.52. The first is the more potent here.

Compared with `Nc1ncnc2c1ccn2[C@@H]1O[C@H](CO)[C@@H](O)[C@H]1O` ['2-(4-AMINO-PYRROLO[2,3-D]PYRIMIDIN-7-YL)-5-HYDROXYMETHYL-TETRAHYDRO-FURAN-3,4-DIOL], `COC(=O)c1nnn(-c2nonc2N)c1CSc1ccccn1` [1-(4-amino-1,2,5-oxadiazol-3-yl)-5-[(2-pyridinylthio)methyl]-4-triazolecarboxylic acid methyl ester] is higher in pEC50: < 3.52 for the first, 4.68 for the second. The second is the more potent here.

`CCN1CCN(c2cc(C)c3cc(NC(=O)CCC(=O)Nc4ccc(OC)cc4OC)ccc3n2)CC1` [N'-(2,4-dimethoxyphenyl)-N-[2-(4-ethyl-1-piperazinyl)-4-methyl-6-quinolinyl]butanediamide] and `COc1cccc(-n2sc3c(c2=S)-c2cc(OC)ccc2NC3(C)C)c1` cannot be ordered by pEC50: < 3.52 for the first, < 3.52 for the second.

`N#CCCn1cc(C(CC(=O)c2ccccc2)C(=O)O)c2ccccc21` (configuration not stated) [MLS000049352] and `O=C(O)COCC(=O)N1CCN(C(c2ccccc2)c2ccccc2)CC1` [2-[2-(4-benzhydrylpiperazino)-2-oxoethoxy]acetic acid] cannot be ordered by pEC50: < 3.52 for the first, < 3.52 for the second.

First: COC(CSc1nc(N)c2c3c(sc2n1)CN(C)CC3)OC [SMR000543145]
Second: Cc1ccc(Nc2nc(NCC3CCCO3)nc(N)c2[N+](=O)[O-])cc1 (configuration not stated)
The pEC50 of the first is lower: < 3.52 for the first, 5.31 for the second.

`CCCCc1cc(=O)oc2cc(OCC(=O)N(CC)CC)ccc12` and `Cc1cccc(OCc2nnc(SCC(=O)Nc3sc(C)c(C)c3C#N)n2C)c1` [N-(3-cyano-4,5-dimethylthiophen-2-yl)-2-[[4-methyl-5-[(3-methylphenoxy)methyl]-1,2,4-triazol-3-yl]sulfanyl]acetamide] cannot be ordered by pEC50: < 3.52 for the first, < 3.52 for the second.

`Clc1ccccc1Nc1nc(-c2ccncc2)nc2ccccc12` [MLS001163918] and `O=S(=O)(c1ccc(F)cc1)c1nc(-c2ccco2)oc1Nc1ccccc1` [4-(4-fluorophenyl)sulfonyl-2-(furan-2-yl)-N-phenyl-1,3-oxazol-5-amine] cannot be ordered by pEC50: < 3.52 for the first, < 3.52 for the second.

Compared with `c1cc(CSc2nnc(-c3ccc4c(c3)OCO4)o2)ccn1` [SMR000006350], `Fc1ccc(CSc2nnc(-c3cccs3)o2)cc1` [SMR000003242] is lower in pEC50: 5.77 for the first, < 3.52 for the second.

`CC(C)N1C(=O)C(=CNCc2cccnc2)C(=O)NC1=S` [1-Isopropyl-5-[1-[(pyridin-3-ylmethyl)-amino]-meth-(E)-ylidene]-2-thioxo-dihydro-pyrimidine-4,6-dione] and `O=C1N=C(Nc2ccccc2)SC1=Cc1cccnc1` [MLS000768418] cannot be ordered by pEC50: < 3.52 for the first, < 3.52 for the second.

`COc1ccccc1CNC(=O)OCc1nccnc1C(=O)Nc1ccc(Br)cn1` [[3-[(5-bromopyridin-2-yl)carbamoyl]pyrazin-2-yl]methyl N-[(2-methoxyphenyl)methyl]carbamate] and `CCCc1c(NC(=O)Nc2ccc(F)cc2)cnn1-c1ccccc1` [1-(4-fluorophenyl)-3-(1-phenyl-5-propylpyrazol-4-yl)urea] cannot be ordered by pEC50: < 3.52 for the first, < 3.52 for the second.

`CCC(=O)c1c(CC)c2n3c1CC[C@H]3CCC2` [SMR000469597] and `O=C1NC(=O)c2c(NC(=O)C3CCCO3)cccc21` (configuration not stated) [MLS000064410] cannot be ordered by pEC50: < 3.52 for the first, < 3.52 for the second.

`C[C@H](C(O)c1ccccc1)N(C)C(=O)CN` (some centres not stated) [SMR000639412] and `CC(=O)NCC1COc2ccccc2O1` (configuration not stated) [N-(2,3-dihydro-1,4-benzodioxin-3-ylmethyl)ethanamide] cannot be ordered by pEC50: < 3.52 for the first, < 3.52 for the second.

First: COC(=O)c1nnn(-c2nonc2N)c1CSc1nc2ccccc2o1 [methyl 1-(4-amino-1,2,5-oxadiazol-3-yl)-5-[(1,3-benzoxazol-2-ylthio)methyl]-1H-1,2,3-triazole-4-carboxylate]
Second: CCCCCOc1ccc(C=NNC(=O)c2nnn(-c3nonc3N)c2CN2CCCCCC2)cc1 [1-(4-azanyl-1,2,5-oxadiazol-3-yl)-5-(azepan-1-ylmethyl)-N-[(4-pentoxyphenyl)methylideneamino]-1,2,3-triazole-4-carboxamide]
The pEC50 of the first is 1.11 log units lower: 3.90 for the first, 5.01 for the second.

Going from `N#Cc1c(O)nc(SCC(=O)Nc2nnc(C(F)(F)F)s2)nc1-c1ccccc1` [2-[(5-cyano-4-oxo-6-phenyl-1H-pyrimidin-2-yl)sulfanyl]-N-[5-(trifluoromethyl)-1,3,4-thiadiazol-2-yl]acetamide] to `COc1ccc(CC(=O)Nc2ncc([N+](=O)[O-])s2)cc1OC` [SMR000288398], the pEC50 rises from < 3.52 to 5.08. The second is the more potent here.

Compared with `O=c1c(O)c(-c2ccc(O)cc2)oc2cc(O)cc(O)c12`, `C=C1C(c2ccc(OC)cc2)=[N+](O)C(C)=C(C)N1[O-]` is lower in pEC50: 4.94 for the first, < 3.52 for the second. The first is the more potent here.

Going from `C=CCN=C(NC#N)SCC(=O)c1cccc(OC)c1` [[2-(3-methoxyphenyl)-2-oxidanylidene-ethyl] N-cyano-N'-prop-2-enyl-carbamimidothioate] to `COc1cccc(N=Nc2c(N)[nH][nH]c2=O)c1` [SMR000231776], the pEC50 falls from 5.91 to 4.70 (1.21 log units).

`O=C(Nc1ncc([N+](=O)[O-])s1)c1ccco1` [N-(5-nitro-2-thiazolyl)-2-furancarboxamide] and `CCOC(=O)c1sc(NC(=O)CCN2C(=O)c3cccc([N+](=O)[O-])c3C2=O)c(C(=O)OCC)c1C` [3-methyl-5-[[3-(4-nitro-1,3-dioxo-2-isoindolyl)-1-oxopropyl]amino]thiophene-2,4-dicarboxylic acid diethyl ester] cannot be ordered by pEC50: < 3.52 for the first, < 3.52 for the second.

First: COCCNc1nc(N)c([N+](=O)[O-])c(NCCO)n1 [2-[[6-azanyl-2-(2-methoxyethylamino)-5-nitro-pyrimidin-4-yl]amino]ethanol]
Second: Cc1ccc(C)c(S(=O)(=O)NCc2ccc(C(=O)N3CC(C)OC(C)C3)cc2)c1 (configuration not stated) [N-[[4-(2,6-dimethylmorpholin-4-yl)carbonylphenyl]methyl]-2,5-dimethyl-benzenesulfonamide]
The pEC50 of the first is higher: 4.54 for the first, < 3.52 for the second.

For `Cc1ccc(NC2=CC(=O)CC(C)(C)C2)cc1C` [3-(3,4-dimethylanilino)-5,5-dimethyl-1-cyclohex-2-enone], the pEC50 was < 3.52.

— BindingDB's records for doi:10.7270/Q2TX3CTT (Broad Institute, 2010)
